Tests used:
hNaV1.7 = hNaV1.7 (Homo sapiens, UniProt Q15858); assay type: cell-based
[1] = system: hNaV1.1, 1.2, 1.6, 1.7, 1.3; conditions: ref Gonçalves et al., 2018, cited from earlier work

Chain of hNaV1.7 (Q07699 19-218): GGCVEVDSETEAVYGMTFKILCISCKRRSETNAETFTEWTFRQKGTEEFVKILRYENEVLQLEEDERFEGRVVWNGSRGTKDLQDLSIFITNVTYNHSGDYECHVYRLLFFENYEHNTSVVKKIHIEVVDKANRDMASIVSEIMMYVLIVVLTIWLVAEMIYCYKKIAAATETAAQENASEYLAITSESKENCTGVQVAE
Chain of hNaV1.7 (Q15858 whole entry): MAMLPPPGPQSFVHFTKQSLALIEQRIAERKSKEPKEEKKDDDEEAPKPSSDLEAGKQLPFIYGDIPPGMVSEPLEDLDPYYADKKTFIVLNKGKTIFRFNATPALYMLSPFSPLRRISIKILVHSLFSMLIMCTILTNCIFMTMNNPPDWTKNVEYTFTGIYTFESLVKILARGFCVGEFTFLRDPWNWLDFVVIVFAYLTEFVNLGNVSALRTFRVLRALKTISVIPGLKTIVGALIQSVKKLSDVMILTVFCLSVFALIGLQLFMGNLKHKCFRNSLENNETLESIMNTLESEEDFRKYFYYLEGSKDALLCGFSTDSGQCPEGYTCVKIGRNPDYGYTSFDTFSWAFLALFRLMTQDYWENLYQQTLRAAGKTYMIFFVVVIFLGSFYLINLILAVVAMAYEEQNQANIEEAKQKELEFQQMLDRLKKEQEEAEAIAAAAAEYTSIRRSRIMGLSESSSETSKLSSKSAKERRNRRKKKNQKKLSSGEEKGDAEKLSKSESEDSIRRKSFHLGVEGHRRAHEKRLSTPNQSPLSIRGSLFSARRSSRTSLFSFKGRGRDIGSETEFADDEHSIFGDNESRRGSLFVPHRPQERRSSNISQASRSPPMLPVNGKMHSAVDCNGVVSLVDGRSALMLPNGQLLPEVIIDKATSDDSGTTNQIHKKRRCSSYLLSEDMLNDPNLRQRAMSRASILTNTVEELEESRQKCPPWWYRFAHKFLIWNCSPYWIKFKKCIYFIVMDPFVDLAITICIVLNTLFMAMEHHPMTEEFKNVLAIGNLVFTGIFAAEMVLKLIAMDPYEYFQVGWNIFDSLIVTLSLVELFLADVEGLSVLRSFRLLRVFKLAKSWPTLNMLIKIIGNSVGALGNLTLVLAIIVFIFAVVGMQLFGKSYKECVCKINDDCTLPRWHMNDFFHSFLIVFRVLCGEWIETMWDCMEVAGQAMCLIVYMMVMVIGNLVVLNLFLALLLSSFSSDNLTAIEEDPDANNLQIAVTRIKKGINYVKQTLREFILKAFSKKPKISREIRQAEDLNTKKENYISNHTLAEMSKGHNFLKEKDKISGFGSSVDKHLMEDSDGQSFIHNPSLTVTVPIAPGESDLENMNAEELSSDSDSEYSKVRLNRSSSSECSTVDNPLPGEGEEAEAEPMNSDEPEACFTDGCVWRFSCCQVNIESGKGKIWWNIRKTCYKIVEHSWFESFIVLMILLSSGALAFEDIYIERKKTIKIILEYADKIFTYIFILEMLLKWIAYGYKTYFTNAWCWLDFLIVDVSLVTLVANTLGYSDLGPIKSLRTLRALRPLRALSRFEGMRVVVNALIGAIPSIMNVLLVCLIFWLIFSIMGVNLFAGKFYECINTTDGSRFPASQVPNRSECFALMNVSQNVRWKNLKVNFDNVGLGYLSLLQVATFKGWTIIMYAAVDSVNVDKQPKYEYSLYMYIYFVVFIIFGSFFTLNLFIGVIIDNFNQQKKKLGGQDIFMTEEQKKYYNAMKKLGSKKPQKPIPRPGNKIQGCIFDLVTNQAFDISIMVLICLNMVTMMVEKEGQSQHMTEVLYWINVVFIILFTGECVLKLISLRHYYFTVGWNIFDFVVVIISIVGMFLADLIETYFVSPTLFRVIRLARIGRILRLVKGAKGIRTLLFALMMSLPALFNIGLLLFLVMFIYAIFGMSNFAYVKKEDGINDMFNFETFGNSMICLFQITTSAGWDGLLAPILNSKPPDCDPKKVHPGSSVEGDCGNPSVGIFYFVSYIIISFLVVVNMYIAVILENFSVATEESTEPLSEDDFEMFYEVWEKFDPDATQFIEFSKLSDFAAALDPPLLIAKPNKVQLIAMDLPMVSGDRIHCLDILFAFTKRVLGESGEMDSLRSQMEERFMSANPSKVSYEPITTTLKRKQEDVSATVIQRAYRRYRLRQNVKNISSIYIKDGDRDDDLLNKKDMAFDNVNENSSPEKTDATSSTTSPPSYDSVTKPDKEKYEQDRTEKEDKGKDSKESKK

| Compound | inhibition of veratridine + OD1 activated responses (hNaV1.7) | IC50 ([1]; range over hNaV1.1, 1.2, 1.6, 1.7, 1.3, read-out: IC50 at five hNaV subtypes) [nM] | rank order of potency [1] |
| --- | --- | --- | --- |
| NC1=N[C@H](O)[C@H]2[C@H]3O[C@]4(O)O[C@@H]([C@@H](O)[C@@]2(N1)[C@@H]4O)[C@]3(O)CO [Tetrodotoxin (TTX), Tetrodotoxin] | fully inhibited | – | – |
| HwTx-IV: NaSpTx1 family spider toxin, 40% sequence identity with Ssp1a | – | 41 to 190 | hNaV1.1 > 1.2 > 1.6 > 1.7 > 1.3 |
